Tests used:
[1] = test system: RXR (retinoid X receptor); conditions: cited from earlier work
[2] = biological target: T1, PPARα (Homo sapiens, UniProt Q07869); conditions: cited from earlier work
T1 sequence (Q07869 1-468): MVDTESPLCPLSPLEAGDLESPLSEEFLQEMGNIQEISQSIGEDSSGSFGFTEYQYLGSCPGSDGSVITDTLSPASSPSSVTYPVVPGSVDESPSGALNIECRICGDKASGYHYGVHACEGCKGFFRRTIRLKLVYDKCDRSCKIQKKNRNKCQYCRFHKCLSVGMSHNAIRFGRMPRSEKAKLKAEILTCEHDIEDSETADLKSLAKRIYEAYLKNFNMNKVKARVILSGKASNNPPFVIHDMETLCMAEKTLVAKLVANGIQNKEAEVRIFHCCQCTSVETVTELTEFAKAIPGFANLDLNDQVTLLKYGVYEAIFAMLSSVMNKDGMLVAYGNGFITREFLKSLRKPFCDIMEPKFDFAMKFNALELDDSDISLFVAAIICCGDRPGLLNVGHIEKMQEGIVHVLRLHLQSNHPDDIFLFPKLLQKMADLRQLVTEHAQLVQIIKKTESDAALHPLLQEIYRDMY

[3] = test system: 3T3-L1 cells; conditions: 3T3-L1 cells (Schluter et al., 2002); cited from earlier work
[4] = test system: hepatocytes; conditions: EP 1177789; cited from earlier work
[5] = test system: mouse teratogenesis models; conditions: mouse teratogenesis models (Arnhold et al., 2002); cited from earlier work
[6] = test system: healthy rats; assay: Phytol treatment healthy rats, serum triglycerides and cholesterol (Example 1); format: in vivo, rat; conditions: 1 weight percentage phytol mixed in the food, after 4 days, vs untreated rats
Description: FIG. 1 is a graph comparing the triglyceride and cholesterol lowering effect of phytol in rats. The rats were treated with oral administration of phytol at 125 mg daily.
(§1) Triglyceride and cholesterol lowering effect after oral administration of phytol was validated in serum from healthy rats treated with phytol. Phytol (FIG. 1; black bars) was administrated to rats at 1 weight percentage phytol mixed in the food. Analysis was made in comparison with control (FIG. 1; white bars) untreated rats.

[7] = test system: healthy pigs; assay: Phytol treatment healthy pigs, serum triglycerides and cholesterol (Example 2); format: in vivo, pig; conditions: 10 g phytol daily mixed in the food, after 1 wk, vs untreated pigs
Description: FIG. 2 is a graph comparing the triglyceride and cholesterol lowering effect of phytol in pigs. The pigs were treated with oral administration of phytol at 10 g daily.
Triglyceride and cholesterol lowering effect after oral administration of phytol was validated in serum from healthy pigs treated with phytol. Phytol (FIG. 2.; black bars) was administrated to pigs at 10 g phytol daily mixed in the food. Analysis was made in comparison with control (FIG. 2.; white bars) untreated pigs.

[8] = test system: healthy pigs; assay: Phytol treatment healthy pigs, increasing dose, serum triglycerides (Example 3); format: in vivo, pig; conditions: vs corn oil control
Description: FIG. 3 is a graph showing the effect of increased dose of phytol in pigs. The pigs were treated with oral administration of 1.25; 2.5; 5 and 10 g phytol daily for two weeks, respectively.
Triglyceride lowering effect after oral administration of phytol was validated in serum from healthy pigs treated with phytol. Phytol (FIG. 3.; black circles) was administrated to pigs at 1.25, 2.5, 5 and 10 g phytol daily. Analysis was made in comparison with control (FIG. 3.; open circles) pigs given corn oil as control.

[9] = test system: obese (ob/ob) mice; assay: Phytol treatment obese (ob/ob) mice, serum cholesterol (Example 4); format: in vivo, mouse; conditions: 0.75 weight percentage phytol mixed in the food, during 5 weeks, vs untreated mice, p<0.001
Description: FIG. 4 is a graph comparing the cholesterol lowering effect of phytol in obese ob/ob mice. The mice were treated with oral administration of phytol 0.75% weight evenly distributed in powdered chow.
Cholesterol lowering effect after oral administration of phytol was validated in serum from obese (ob/ob) mice treated with phytol. Phytol (FIG. 4; black circles) was administrated to the mice at 0.75 weight percentage phytol mixed in the food. Analysis was made in comparison with control (FIG. 4; open circles) untreated mice.

[10] = test system: healthy rats; assay: Phytol treatment healthy rats, serum cholesterol and LDL-cholesterol, thirty days (Example 5); format: in vivo, rat; conditions: 1 weight percentage phytol in the food
Description: FIG. 5 is a graph comparing the cholesterol and LDL-Cholesterol lowering effect of phytol in rats. The rats were treated with oral administration of phytol at 1% weight evenly distributed in powdered chow.
as §1, with “Cholesterol” for “Triglyceride”, “LDL-Cholesterol” for “cholesterol”, “5;” for “1;”, “food for thirty days.” for “food.”

[11] = test system: healthy mice; assay: Phytol treatment healthy mice, serum cholesterol and LDL-cholesterol (Example 6); format: in vivo, mouse; conditions: 1 weight percentage phytol in the food, after thirty days, vs untreated mice
Description: FIG. 6 is a graph comparing the cholesterol and LDL-Cholesterol lowering effect of phytol in mice. The mice were treated with oral administration of phytol at 1% weight evenly distributed in powdered chow.
as §1, with “Cholesterol” for “Triglyceride”, “LDL-Cholesterol” for “cholesterol”, “mice” for “rats”, “6;” for “1;”, “food for thirty days.” for “food.”, “mice.” for “rats.”

[12] = test system: healthy rats; assay: Phytol treatment healthy rats, 400 mg every second day, serum cholesterol and LDL-cholesterol (Example 7); format: in vivo, rat; conditions: 400 mg phytol every second day, after three weeks, vs untreated rats
Description: FIG. 7 is a graph comparing the cholesterol and LDL-Cholesterol lowering effect of Phytol in rats. The rats were treated with oral administration of phytol at 400 mg every second day for three weeks.
Cholesterol and LDL-Cholesterol lowering effect after oral administration of phytol was validated in serum from healthy rats treated with phytol. Phytol (FIG. 7; black bars) was administrated to rats at 400 mg phytol administered every second day for three weeks. Analysis was made in comparison with control (FIG. 7; white bars) untreated rats.

[13] = test system: rats; conditions: cited from earlier work
[14] = test system: rabbits; conditions: cited from earlier work
[15] = test system: rats; conditions: rats fed 0.5% phytol in the diet for 15 months (Steinberg et al., 1966); cited from earlier work
[16] = test system: humans; conditions: 10% concentration (Kligman, 1966; Kligman & Epstein, 1975); cited from earlier work
[17] = cited from earlier work
[18] = cited from earlier work; remark: listed apart in the source
[19] = test system: adult mice; conditions: cited from earlier work
[20] = one Refsum's disease patient, 72 mg tritium labelled phytol orally after overnight fasting (Kahlke & Wagener, 1966); cited from earlier work
[21] = phytol given as chlorophyll; cited from earlier work
[22] = after ten days, vs untreated rats, p<0.0001
[23] = after three weeks of phytol feeding

For `CC(C)CCCC(C)CCCC(C)CCCC(C)CC(=O)O` (stereo not drawn) [phytanic acid], the “RXR (retinoid X receptor) activator” value ([1]; Kitareewan et al., 1996) is given as “activator”, the “activation of RXR in vitro (postulated)” value ([1]; in vitro) is given as “activate” and the “activation of PPARα in vitro (postulated)” value [2] is given as “activate”. For the same compound, the “AP2 mRNA” value [3] was “activates AP2 mRNA”, the “transcription of the genes for glucose transporters and glucokinase” value [4] was “increase and stimulate the transcription” and the “uptake of glucose in hepatocytes” value [4] was “increased uptake of glucose”. The “vitamin A (retinol) induced teratogenic effects” value [5] was “able to prevent”.

In the case of `C/C(=C\CO)CCCC(C)CCCC(C)CCCC(C)C` (stereo not drawn) [phytol, 3,7,11,15-Tetramethyl-hexadec-2-en-1-ol], the “serum levels of cholesterol” value ([6]; p<0.001) is reported as “significantly reduced”, the “serum levels of triglycerides” value ([6]; p<0.05) is reported as “significantly reduced” and the “serum levels of triglycerides” value ([7]; p<0.01) is reported as “significantly reduced”. For the same compound, the “serum levels of cholesterol” value ([7]; p<0.05) was “significantly reduced”, the “serum levels of triglycerides” value ([8]; 2.5 g phytol per day oral, p<0.05) was “significantly reduced” and the “serum levels of triglycerides” value ([8]; 5 g phytol per day oral, p<0.01) was “significantly reduced”. The “serum levels of triglycerides” value ([8]; 10 g phytol per day oral, p<0.001) was “significantly reduced”, the “serum levels of cholesterol” value [9] was “significantly reduced” and the “serum LDL-cholesterol” value [10, 22] was “significantly reduced”. For the same compound, the serum cholesterol [10, 22] was “significantly reduced”, the “serum LDL-cholesterol” value ([10]; after thirty days) was “even more reduced” and the “serum LDL-cholesterol” value ([11]; p<0.01) was “significantly reduced”. For the same compound, the serum cholesterol ([11]; p=0.05) was “significantly reduced”, the “serum LDL-cholesterol” value ([12]; p<0.001) was “significantly reduced” and the serum cholesterol ([12]; p<0.05) was “significantly reduced”. For the same compound, the “acute oral LD50” value [13] was “exceed 5 g/kg”, the “acute dermal LD50” value [14] was “exceed 5 g/kg” and the “growth inhibition or toxicity” value [15] was “No evidence of growth inhibition or toxicity”. For the same compound, the irritation [16] was “no irritation”, the “capacity to absorb into the intestinal lymphatic” value ([17]; rat, oral administration (Baxter & Steinberg, 1967)) was at most 0.2 g phytol/kg bodyweight and the “time of transportation into the intestinal lymphatic after administration” value ([17]; rat, oral administration) was at most 20 h. For the same compound, the “absorption when mixed with bile salts prior to administration” value ([17]; rat, oral, phytol mixed with bile salts) was “absorption increases”, the “orally administered phytol absorbed” value ([17]; rat, oral) was “More than 50%” and the “share of absorbed phytol absorbed via the intestinal lymphatics” value ([17]; rat, oral) was “more than 70%”. The absorption and degradation ([17]; rats fed 5% phytol (Mize et al., 1966)) was “capacity to rapidly absorb and degrade phytol”, the “absorbed, of administered dose” value ([17]; rats, oral) was 30-66 % of administered dose and the “serum and liver values of accumulated phytol after phytol is subtracted from the food” value ([18]; after withdrawal of dietary phytol) was “drops rapidly”. For the same compound, the “distribution to the livers” value ([18]; at the 1% level in the food) was “no phytol was distributed to the livers”, the accumulation in tissues ([18]; dietary phytol at doses 1-5% in the food, rat, mouse, rabbit and chinchillas (Steinberg et al., 1966)) was “accumulation in both liver and serum” and the serum cholesterol levels [19, 23] was “remained unaffected”. The serum triglyceride levels [19, 23] was “decreased”, the hepatic peroxisomes ([19]; enhanced supply of phytol in the diet (Van den Branden et al., 1986)) was “proliferation of hepatic peroxisomes” and the “vitamin A (retinol) induced teratogenic effects” value [5] was “able to prevent”. For the same compound, the “principal carriers of phytol in plasma” value [20] was “Plasma cholesterol esters and triglycerides”.

For chlorophyll, the “absorption of phytol compared to when given as pure phytol” value [21] is given as “much lower”.

From US20110015278A1, “PHYTOL AS A CHOLESTEROL LOWERING AGENT” (priority 2008, published 2011)
